Series [1] concerns HCV replicon (genotype 1b) in Huh7 cell line ET. Put plainly: microbe, parasite or virus in culture. It is filed as cell-based, HCV genotype 1b. Conditions: Hepatitis C virus.
Series [2] deals with HCV sub-genomic replicon of genotype 1a in replicon cell line W11.8. The series can be described thus: microbe, parasite or virus in culture. It is filed as cell-based, HCV genotype 1a. Particulars: Hepatitis C virus. An excerpt:
This procedure below describes the HCV replicon assay using a Huh7 hepatoma cell line harboring a highly cell culture-adapted replicon (genotype 1b) (hereafter named cell line ET). The ET cells contained the highly cell culture-adapted replicon I389luc-ubi-neo/NS3-3′/5.1 construct that carried, in addition to the neomycin gene, an integrated copy to the firefly luciferase gene (Krieger, N; Lohmann, V; Bartenschlager, R. Enhancement of hepatitis C virus RNA replication by cell culture-adaptive mutations. J. Virol. 2001, 75, 4614-4624). A replicon cell line W11.8, containing the 1a genotype of HCV was also used. These two cell lines (genotype 1b and 1a) allowed measurement of RNA replication and translation by measuring luciferase activity (against genotype 1b) or by measuring the NS5A level using the ELISA assay (against genotype 1a). […] ET cell lines were maintained in cultures at a sub-confluent level (<85%). The culture media used for cell passaging consisted of DMEM (Gibco BRL Laboratories, Mississauga, ON, Canada) supplemented with 10% fetal bovine serum with 1% penicilin/streptomycin, 1% glutamine, 1% sodium pyruvate, 1% non-essential amino acids, and 180 µg/ml of G418 final concentration.
Replicon cell lines W11.8 containing a sub-genomic replicon of genotype 1a was used for the HCV Replicon Cell-Based detection using the ELISA. The RNA replication in presence of different drug concentrations was indirectly measured in these cell lines by the level of NS5A protein content upon drug treatment for four days. The NS5A is a non-structural protein of HCV and is used as marker of HCV replication in this assay.
For the treatment of the cells with the testing drug, Culture medium was removed from the 175 cm^2 T-flask by aspiration. Cell monolayer was rinsed with 10-20 mL of PBS 1× at room temperature. PBS was removed by aspiration. Cells were trypsinized using 3 mL of Trypsin (0.25%)/EDTA (0.1%) solution. Flasks were incubated at 37° C. (incubator) for 7 minutes. Complete medium (9 mL) without G418 is then added. Cell clumps were disrupted by pipetting up and down several times.
The cell suspension was then transferred to a 50 mL Falcon polypropylene tube. Cells were then counted several times using the haemocytometer. Cells were diluted at 50,000 cells/mL with complete DMEM without G418, then transferred into a sterile reservoir. Using a multichannel pipet, approximately 5,000 viable cells (100 μL) were plated per well in a white opaque 96-well microtiter plate. After an incubation period of 2-4 hours at 37° C. in a 5% CO2 incubator, compounds were added at various concentrations.
Drugs were resuspended in DMSO at a stock concentration of 100 mM or 10 mM. […] Then, drugs were diluted at twice the final concentration in the same medium (without G418) described earlier, in sterile 96-deep well plate and according to a particular template (see Appendix). One volume (100 μL) of each drug dilution was then added to each well that contains cells.
Sixteen wells were used as control (0% inhibition) without drug. Eight wells were used as background control (100% inhibition) containing 2 μM (final concentration) of the reference compound. […] Values from 100% inhibited wells were averaged and used as the background value. Cells are further incubated for 4 days at 37° C. in a 5% CO2 incubator.
For the measurement of NS5A protein content, following the incubation time of four days, the media was throwed into an appropriate waste container by inverting the plate. Any residual liquid was removed by tapping gently on absorbent paper several times. The plates were then washed once with 150 μL of PBS per well, and then incubated for 5 minutes at room temperature on a shaker (500 rpm).

A short description of series [3]: [3H]Thymidine incorporation assay (cell toxicity). Conditions: human. Background: Dividing cells build labelled thymidine or BrdU into new DNA.
Where [4] appears, read: Huh-7, read-out: HCV-Replicon-(Luci-ET) 1b_IC50.
Where [5] appears, read: W11.8, read-out: HCV-Replicon-ELISA-1a IC50.

Where two headings read alike, the source gives them in different places.

Results on 24 compounds are retold here after patent publication US20130190289A1, “COMPOUNDS AND METHODS FOR THE TREATMENT OR PREVENTION OF FLAVIVIRUS INFECTIONS” (priority 2010, published 2013).

`COCC(C(=O)N(C)C)N(C(=O)C1CCC(C)CC1)c1cc(C#CC(C)(C)C)sc1C(=O)O` (single isomer, unassigned) [Compound 21]: the IC50 in series [1] (setting [4]) and in series [2] (setting [5]) was under 100 nM in each case. The compound also showed a CC50 at 72 h in series [3] of over 100000 nM.
Regarding `CC1CCC(C(=O)N(c2cc(C#CC(C)(C)C)sc2C(=O)O)[C@H]2CCN(C)C2=O)CC1` (single isomer, unassigned) [Compound 91], the IC50 in series [1] (setting [4]) and in series [2] (setting [5]) was under 100 nM in each case. Further, in series [3], the cytotoxic concentration (CC50) at 72 h is over 100000 nM.
Take `C[C@@H](C(=O)N(C)C)N(c1cc(C#CC(C)(C)C)sc1C(=O)O)C(=O)[C@H]1CC[C@H](C)CC1` [Compound 3, 5-(3,3-Dimethyl-but-1-ynyl)-3-[((S)-1-dimethylcarbamoyl-ethyl)-(trans-4-methyl-cyclohexanecarbonyl)-amino]-thiophene-2-carboxylic acid]: the IC50 in series [1] (setting [4]) and in series [2] (setting [5]) was under 100 nM in each case. In series [3], this compound registered a CC50 at 72 h of over 100000 nM.
With `CN(C)C(=O)CN(C(=O)c1ccc(Cl)cc1Cl)c1cc(C#CC(C)(C)C)sc1C(=O)O` [Compound 4, 3-[(2,4-Dichloro-benzoyl)-dimethylcarbamoylmethyl-amino]-5-(3,3-dimethyl-but-1-ynyl)-thiophene-2-carboxylic acid], the IC50 is under 100 nM in series [1] (setting [4]) and 100 to 1000 nM in series [2] (setting [5]). Moreover, in series [3], the CC50 at 72 h lay in the range of 10000 to 100000 nM.
On the same counts, the results for `CN(C)C(=O)CN(c1cc(C#CC(C)(C)C)sc1C(=O)O)C(=O)[C@H]1CC[C@H](C)CC1` [Compound 5, 5-(3,3-Dimethyl-but-1-ynyl)-3-[dimethylcarbamoylmethyl-(trans-4-methyl-cyclohexanecarbonyl)-amino]-thiophene-2-carboxylic acid] are under 100 nM, under 100 nM and over 100000 nM.
Regarding `CC(C)(C)C#Cc1cc(N(CC(=O)N2CCCC2)C(=O)[C@H]2CC[C@H](C)CC2)c(C(=O)O)s1` [Compound 6, 5-(3,3-Dimethyl-but-1-ynyl)-3-[(trans-4-methyl-cyclohexanecarbonyl)-(2-oxo-2-pyrrolidin-1-yl-ethyl)-amino]-thiophene-2-carboxylic acid], the IC50 in series [1] (setting [4]) and in series [2] (setting [5]) was under 100 nM throughout. Also, the CC50 at 72 h in series [3] is over 100000 nM.
Regarding `CC[C@@H](C(=O)N1CCOCC1)N(c1cc(C#CC(C)(C)C)sc1C(=O)O)C(=O)[C@H]1CC[C@H](C)CC1` [Compound 12], the IC50 in series [1] (setting [4]) and in series [2] (setting [5]) was under 100 nM throughout. Further, the CC50 at 72 h in series [3] is 10000 to 100000 nM.
As for `CC[C@@H](C(=O)N(C)C)N(c1cc(C#CC(C)(C)C)sc1C(=O)O)C(=O)[C@H]1CC[C@H](C)CC1` [Compound 13], the IC50 in series [1] (setting [4]) and in series [2] (setting [5]) was under 100 nM each time. This compound showed a half-maximal cytotoxic concentration (CC50) at 72 h in series [3] of over 100000 nM.
Turning to `CC(C)(C)C#Cc1cc(N(CC(=O)N2CCOCC2)C(=O)[C@H]2CC[C@H](C)CC2)c(C(=O)O)s1` [Compound 14], the IC50 in series [1] (setting [4]) and in series [2] (setting [5]) was under 100 nM throughout. In series [3], the CC50 at 72 h was over 100000 nM.
On to `COCC(C(=O)N(C)C)N(C(=O)C1CCC(C)CC1)c1cc(C#CC(C)C)sc1C(=O)O` (centres unmarked) [Compound 16], for which the IC50 in series [1] (setting [4]) and in series [2] (setting [5]) was under 100 nM throughout. The compound also returned a cytotoxic concentration (CC50) at 72 h in series [3] of over 100000 nM.
Consider `CCN(CC)C(=O)CN(c1cc(C#CC(C)(C)C)sc1C(=O)O)C(=O)[C@H]1CC[C@H](C)CC1` [Compound 17], for which the IC50 in series [1] (setting [4]) and in series [2] (setting [5]) was under 100 nM in each case. In series [3], this compound displayed a cytotoxic concentration (CC50) at 72 h of over 100000 nM.
On to `COC[C@@H](C(=O)N1CCOCC1)N(C(=O)C1CCC(C)CC1)c1cc(C#CC(C)(C)C)sc1C(=O)O` (some centres unmarked) [Compound 23], for which the IC50 in series [1] (setting [4]) and in series [2] (setting [5]) was under 100 nM in each case. For the same compound, the half-maximal cytotoxic concentration (CC50) at 72 h in series [3] was over 100000 nM.
On to `COC[C@@H](C(=O)N1CCCC1)N(C(=O)C1CCC(C)CC1)c1cc(C#CC(C)(C)C)sc1C(=O)O` (some centres unmarked) [Compound 35], for which the IC50 in series [1] (setting [4]) and in series [2] (setting [5]) was under 100 nM throughout. Besides, in series [3], the 50% cytotoxic concentration (CC50) at 72 h fell in the range of 10000 to 100000 nM.
Turning to `CC[C@@H](C(=O)N1CCOC(C)C1)N(C(=O)C1CCC(C)CC1)c1cc(C#CC(C)(C)C)sc1C(=O)O` (some centres unmarked) [Compound 56], the IC50 in series [1] (setting [4]) and in series [2] (setting [5]) was under 100 nM in each case. In series [3], the CC50 at 72 h lay in the range of 10000 to 100000 nM.
For the compound `COCC[C@@H](C(=O)N1CCOCC1)N(C(=O)C1CCC(C)CC1)c1cc(C#CC(C)(C)C)sc1C(=O)O` (some centres unmarked) [Compound 61], the IC50 in series [1] (setting [4]) and in series [2] (setting [5]) was under 100 nM in each case. Moreover, the CC50 at 72 h in series [3] was over 100000 nM.
As for `CCC[C@@H](C(=O)N1CCOCC1)N(C(=O)C1CCC(C)CC1)c1cc(C#CC(C)(C)C)sc1C(=O)O` (some centres unmarked) [Compound 64], the IC50 in series [1] (setting [4]) and in series [2] (setting [5]) was under 100 nM in each case. The half-maximal cytotoxic concentration (CC50) at 72 h in series [3] lay in the range of 10000 to 100000 nM.
In the case of `CC[C@@H](C(=O)N1CC2CC1CO2)N(c1cc(C#CC(C)(C)C)sc1C(=O)O)C(=O)[C@H]1CC[C@H](C)CC1` (some centres unmarked) [Compound 78], the IC50 in series [1] (setting [4]) and in series [2] (setting [5]) was under 100 nM in each case. Besides, the half-maximal cytotoxic concentration (CC50) at 72 h in series [3] was over 100000 nM.
For the compound `CC[C@@H](C(=O)N1CC(OC)C1)N(c1cc(C#CC(C)(C)C)sc1C(=O)O)C(=O)[C@H]1CC[C@H](C)CC1` [Compound 79], the IC50 in series [1] (setting [4]) and in series [2] (setting [5]) was under 100 nM in each case. Also, in series [3], the half-maximal cytotoxic concentration (CC50) at 72 h was over 100000 nM.
As to `CC1CCC(C(=O)N(c2cc(C#CC(C)(C)C)sc2C(=O)O)C2CCN(C)C2=O)CC1` (centres unmarked) [Compound 83], the IC50 in series [1] (setting [4]) and in series [2] (setting [5]) was under 100 nM each time. In series [3], the CC50 at 72 h was over 100000 nM.
With `CC[C@@H](C(=O)N1C[C@@H]2C[C@H]1CO2)N(c1cc(C#CC(C)(C)C)sc1C(=O)O)C(=O)[C@H]1CC[C@H](C)CC1` [Compound 94], the IC50 in series [1] (setting [4]) and in series [2] (setting [5]) was under 100 nM throughout. In series [3], the CC50 at 72 h was over 100000 nM.
For the compound `CC1CCC(C(=O)N(c2cc(C#CC(C)(C)C)sc2C(=O)O)[C@H]2CCCCN(C)C2=O)CC1` (stereo partly drawn) [Compound 95, 5-(3,3-dimethylbut-1-yn-1-yl)-3-(4-methyl-N—((S)-1-methyl-2-oxoazepan-3-yl)cyclohexanecarboxamido)thiophene-2-carboxylic acid], the IC50 in series [1] (setting [4]) and in series [2] (setting [5]) was under 100 nM each time. The CC50 at 72 h in series [3] was 10000 to 100000 nM.
Regarding `CC1CCC(C(=O)N(CCC(=O)N(C)C)c2cc(C#CC(C)(C)C)sc2C(=O)O)CC1` (centres unmarked) [Compound 98], the IC50 in series [1] (setting [4]) is under 100 nM; in series [2] (setting [5]), 100 to 1000 nM. In series [3], this compound had a CC50 at 72 h of over 100000 nM.
For `C[C@@H](CN(c1cc(C#CC(C)(C)C)sc1C(=O)O)C(=O)[C@H]1CC[C@H](C)CC1)C(=O)N1CCOCC1` [Compound 108, 5-(3,3-Dimethylbut-1-ynyl)-3-[(trans-4-methylcyclohexanecarbonyl)-[(2S)-2-methyl-3-morpholino-3-oxo-propyl]amino]thiophene-2-carboxylic acid], the IC50 in series [1] (setting [4]) and in series [2] (setting [5]) was under 100 nM in each case. The compound also came in with a half-maximal cytotoxic concentration (CC50) at 72 h in series [3] of over 100000 nM.
In the case of `CC(C)(C)C#Cc1cc(N(C(=O)[C@H]2CC[C@H](C)CC2)[C@H]2CCN([C@H]3CCOC3)C2=O)c(C(=O)O)s1` [Compound 156, 5-(3,3-Dimethylbut-1-ynyl)-3-[(trans-4-methylcyclohexanecaronyl)-[(3S)-2-oxo-1-[(3S)-tetrahydrofuran-3-yl]pyrrolidin-3-yl]amino]thiophene-2-carboxylic acid], the IC50 in series [1] (Huh-7, 96 h, read-out: HCV-Replicon (Luci-ET)-1b_IC50) is under 100 nM; in series [2] (W11.8, 96 h, read-out: HCV-Replicon-ELISA-1a IC50), 4 nM.

One may read the CC50 as the concentration at which the toxic effect on the cells reaches its halfway point.
